PMC8341977, “Towards novel herbicide modes of action by inhibiting lysine biosynthesis in plants” (eLife, 2021)
Like-named read-outs stand apart in the source and are kept apart here.

Assays:
[1] = molecular target: T1, AtDHDPS2 (dihydrodipicolinate synthase 2) (Arabidopsis thaliana, UniProt Q9FVC8); experiment: DHDPS–DHDPR coupled enzyme assay (NADPH oxidation); type: biochemical
T1 construct: gene DHDPS2; recombinant, fusion tag cleaved
T1 sequence (Q9FVC8 40-365): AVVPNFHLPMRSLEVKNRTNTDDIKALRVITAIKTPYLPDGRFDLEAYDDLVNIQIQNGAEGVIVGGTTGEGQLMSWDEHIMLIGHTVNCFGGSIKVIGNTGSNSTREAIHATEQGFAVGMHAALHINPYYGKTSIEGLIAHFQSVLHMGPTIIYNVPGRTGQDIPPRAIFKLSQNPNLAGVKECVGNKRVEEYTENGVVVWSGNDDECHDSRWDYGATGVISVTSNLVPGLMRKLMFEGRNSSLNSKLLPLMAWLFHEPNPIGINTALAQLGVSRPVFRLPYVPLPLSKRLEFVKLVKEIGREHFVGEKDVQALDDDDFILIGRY

[2] = molecular target: T2, AtDHDPS1 (dihydrodipicolinate synthase 1) (Arabidopsis thaliana, UniProt Q9LZX6); experiment: DHDPS–DHDPR coupled enzyme assay (NADPH oxidation); type: biochemical
T2 construct: gene DHDPS1; recombinant, fusion tag cleaved
T2 sequence (Q9LZX6 40-365): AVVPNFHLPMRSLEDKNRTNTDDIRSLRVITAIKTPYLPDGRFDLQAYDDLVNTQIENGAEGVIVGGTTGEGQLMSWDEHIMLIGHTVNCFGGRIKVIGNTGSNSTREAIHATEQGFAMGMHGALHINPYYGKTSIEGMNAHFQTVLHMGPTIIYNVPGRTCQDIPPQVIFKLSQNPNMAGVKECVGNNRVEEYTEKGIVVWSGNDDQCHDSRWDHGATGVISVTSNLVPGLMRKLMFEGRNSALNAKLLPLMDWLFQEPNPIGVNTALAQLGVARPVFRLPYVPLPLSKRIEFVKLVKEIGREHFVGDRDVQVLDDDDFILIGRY

IC50 ([1]; read-out: IC50)	IC50 [2]	SMILES	IC50 [1]
		COc1ccc(C=C2SC(=O)N(CC(=O)O)C2=O)cc1 (stereo in doubt) [MBDTA-2, (Z)−2-(5-(4-methoxybenzylidene)−2,4-dioxothiazolidin-3-yl)acetic acid]	64 ± 1 µM
116 ± 5.2 µM	126 ± 6.5 µM	COc1ccccc1/C=C1\SC(=O)N(CC(=O)O)C1=O [MBDTA-1, (Z)−2-(5-(2-methoxybenzylidene)−2,4-dioxothiazolidin-3-yl)acetic acid]	
